Assay results reported in patent publication US10750743B2, “Pyridazinone herbicides” (E.I. DU PONT DE NEMOURS AND COMPANY, priority 2015, dated 2020).

Legend:
Assay type in all cases: in vivo
[1] = test system: barnyardgrass (Echinochloa crus-galli); experiment: Test A preemergence, directed soil spray, visual injury rating; details: 0 is no effect, 100 is complete control
Text: (§1) Seeds of plant species selected from barnyardgrass (Echinochloa crus-galli), kochia (Kochia scoparia), ragweed (common ragweed, Ambrosia elatior), ryegrass, It. (Italian ryegrass, Lolium multiflorum), foxtail, giant (giant foxtail, Setaria faberii), and pigweed (Amaranthus retroflexus), were planted into a blend of loam soil and sand and treated preemergence with a directed soil spray using test chemicals formulated in a non-phytotoxic solvent mixture which included a surfactant.
(§2) At the same time, plants selected from these weed species and also wheat (Triticum aestivum), corn (Zea mays), blackgrass (Alopecurus myosuroides), and galium (catchweed bedstraw, Galium aparine), were planted in pots containing the same blend of loam soil and sand and treated with postemergence applications of test chemicals formulated in the same manner Plants ranged in height from 2 to 10 cm and were in the one- to two-leaf stage for the postemergence treatment. Treated plants and untreated controls were maintained in a greenhouse for approximately 10 d, after which time all treated plants were compared to untreated controls and visually evaluated for injury. Plant response ratings, summarized in Table A, are based on a 0 to 100 scale where 0 is no effect and 100 is complete control. A dash (-) response means no test result.

[2] = test system: foxtail, giant (giant foxtail, Setaria faberii); experiment: as above; details: 0 is no effect, 100 is complete control
Text: as §1, §2

kochia (Kochia scoparia) [3] = experiment: as above; details: 0 is no effect, 100 is complete control
Text: as §1, §2

[4] = test system: pigweed (Amaranthus retroflexus); experiment: as above; details: 0 is no effect, 100 is complete control
Text: as §1, §2

[5] = test system: ragweed (common ragweed, Ambrosia elatior); experiment: as above; details: 0 is no effect, 100 is complete control
Text: as §1, §2

[6] = test system: ryegrass, It. (Italian ryegrass, Lolium multiflorum); experiment: as above; details: 0 is no effect, 100 is complete control
Text: as §1, §2

[7] = test system: barnyardgrass (Echinochloa crus-galli); experiment: Test A postemergence application, visual injury rating; details: 0 to 100 scale, 0 no effect, 100 complete control
Text: as §1, §2

[8] = test system: blackgrass (Alopecurus myosuroides); experiment: as above; details: 0 to 100 scale, 0 no effect, 100 complete control
Text: as §1, §2

corn (Zea mays) = experiment: as above; details: 0 to 100 scale, 0 no effect, 100 complete control
Text: as §1, §2

[9] = test system: foxtail, giant (giant foxtail, Setaria faberii); experiment: as above; details: 0 to 100 scale, 0 no effect, 100 complete control
Text: as §1, §2

[10] = test system: galium (catchweed bedstraw, Galium aparine); experiment: as above; details: 0 to 100 scale, 0 no effect, 100 complete control
Text: as §1, §2

kochia (Kochia scoparia) [11] = experiment: as above; details: 0 to 100 scale, 0 no effect, 100 complete control
Text: as §1, §2

[12] = test system: pigweed (Amaranthus retroflexus); experiment: as above; details: 0 to 100 scale, 0 no effect, 100 complete control
Text: as §1, §2

[13] = test system: ragweed (common ragweed, Ambrosia elatior); experiment: as above; details: 0 to 100 scale, 0 no effect, 100 complete control
Text: as §1, §2

[14] = test system: ryegrass, It. (Italian ryegrass, Lolium multiflorum); experiment: as above; details: 0 to 100 scale, 0 no effect, 100 complete control
Text: as §1, §2

[15] = test system: wheat (Triticum aestivum); experiment: as above; details: 0 to 100 scale, 0 no effect, 100 complete control
Text: as §1, §2

| Structure (SMILES) | Plant response rating (0 to 100 scale), Barnyardgrass ([1]; 125 g ai/ha) | Plant response rating (0 to 100 scale), Barnyardgrass ([1]; 500 g ai/ha) | Plant response rating (0 to 100 scale), Foxtail, Giant ([2]; 125 g ai/ha) | Plant response rating (0 to 100 scale), Foxtail, Giant ([2]; 500 g ai/ha) | Plant response rating (0 to 100 scale), Kochia (kochia (Kochia scoparia) [3]; 125 g ai/ha) | Plant response rating (0 to 100 scale), Kochia (kochia (Kochia scoparia) [3]; 500 g ai/ha) | Plant response rating (0 to 100 scale), Pigweed ([4]; 125 g ai/ha) | Plant response rating (0 to 100 scale), Pigweed ([4]; 500 g ai/ha) | Plant response rating (0 to 100 scale), Ragweed ([5]; 125 g ai/ha) | Plant response rating (0 to 100 scale), Ragweed ([5]; 500 g ai/ha) | Plant response rating (0 to 100 scale), Ryegrass, It. ([6]; 125 g ai/ha) | Plant response rating (0 to 100 scale), Ryegrass, It. ([6]; 500 g ai/ha) | Barnyardgrass plant response rating ([7]; 125 g ai/ha) | Barnyardgrass plant response rating ([7]; 500 g ai/ha) | Blackgrass plant response rating ([8]; 125 g ai/ha) | Blackgrass plant response rating ([8]; 500 g ai/ha) | Corn plant response rating (corn (Zea mays); 125 g ai/ha) | Corn plant response rating (corn (Zea mays); 500 g ai/ha) | Foxtail, Giant plant response rating ([9]; 125 g ai/ha) | Foxtail, Giant plant response rating ([9]; 500 g ai/ha) | further results |
| --- | --- | --- | --- | --- | --- | --- | --- | --- | --- | --- | --- | --- | --- | --- | --- | --- | --- | --- | --- | --- | --- |
| CCOC(=O)Oc1c(C)nn(C)c(=O)c1-c1c(C)sc2ncc(C)cc12 [Compound 2] | 0 | 20 | 0 | 20 | 0 | 60 | 0 | 80 | 0 | 20 | 30 | 100 | 0 | 20 | 20 | 40 | 0 | 0 | 0 | 20 | Galium plant response rating ([10]; 125 g ai/ha): 40; Galium plant response rating ([10]; 500 g ai/ha): 80; Kochia plant response rating (kochia (Kochia scoparia) [11]; 125 g ai/ha): 30; Kochia plant response rating (kochia (Kochia scoparia) [11]; 500 g ai/ha): 90; Pigweed plant response rating ([12]; 125 g ai/ha): 70; Pigweed plant response rating ([12]; 500 g ai/ha): 90; Ragweed plant response rating ([13]; 125 g ai/ha): 20; Ragweed plant response rating ([13]; 500 g ai/ha): 50; Ryegrass, It. plant response rating ([14]; 125 g ai/ha): 30; Ryegrass, It. plant response rating ([14]; 500 g ai/ha): 90; Wheat plant response rating ([15]; 125 g ai/ha): 0; Wheat plant response rating ([15]; 500 g ai/ha): 20 |
| Cc1cnc2sc(C)c(-c3c(O)c(C)nn(C)c3=O)c2c1 [Compound 3] | 0 | 10 | 0 | 10 | 0 | 20 | 40 | 80 | 0 | 40 | 30 | 70 | 0 | 30 | 20 | 40 | 0 | 0 | 0 | 30 | Galium plant response rating ([10]; 125 g ai/ha): 30; Galium plant response rating ([10]; 500 g ai/ha): 80; Kochia plant response rating (kochia (Kochia scoparia) [11]; 125 g ai/ha): 30; Kochia plant response rating (kochia (Kochia scoparia) [11]; 500 g ai/ha): 90; Pigweed plant response rating ([12]; 125 g ai/ha): 80; Pigweed plant response rating ([12]; 500 g ai/ha): 90; Ragweed plant response rating ([13]; 125 g ai/ha): 20; Ragweed plant response rating ([13]; 500 g ai/ha): 50; Ryegrass, It. plant response rating ([14]; 125 g ai/ha): 20; Ryegrass, It. plant response rating ([14]; 500 g ai/ha): 80; Wheat plant response rating ([15]; 125 g ai/ha): 0; Wheat plant response rating ([15]; 500 g ai/ha): 20 |
